Data: patent US12312330B2, “1-((S)-1-(3-chloro-5-fluoro-2-((4-(1h-pyrazol-1-yl)-2-methylquinolin-8-yloxy)methyl)phenyl)ethyl)-imidazolidine-2,4-dione derivatives and related compounds as bradykinin (BK) B2 receptor antagonist for treating skin diseases” (Pharvaris GmbH, priority 2019, dated 2025)

Target: T1, human bradykinin B2 receptor (hB2R) (Homo sapiens, UniProt P30411)
T1 sequence (P30411 1-391): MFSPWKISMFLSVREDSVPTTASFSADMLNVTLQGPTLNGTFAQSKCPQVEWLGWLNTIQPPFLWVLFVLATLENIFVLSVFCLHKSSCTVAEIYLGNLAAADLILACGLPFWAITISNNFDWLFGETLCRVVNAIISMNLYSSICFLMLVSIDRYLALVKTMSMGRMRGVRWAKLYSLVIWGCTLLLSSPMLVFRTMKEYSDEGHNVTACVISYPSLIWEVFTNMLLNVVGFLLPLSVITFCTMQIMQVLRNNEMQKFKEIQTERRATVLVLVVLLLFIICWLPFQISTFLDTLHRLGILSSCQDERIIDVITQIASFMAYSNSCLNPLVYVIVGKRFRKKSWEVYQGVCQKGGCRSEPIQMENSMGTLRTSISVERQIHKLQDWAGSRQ
Test: human bradykinin B2 receptor calcium mobilization (hB2R-CaM) assay
Format: cell-based
Conditions: antagonism of bradykinin (EC80) induced calcium mobilization, B2 Bradykinin Receptor Stable Cell Line HTS041C, 25 min pre-incubation; read-out: IC50-value towards human bradykinin B2 receptor (hB2R)
Text: The following cell-based human bradykinin B2 receptor calcium mobilization (hB2R-CaM) assay was used to determine the antagonistic activity of compounds selected from the example compounds Nos. 1 to 107 towards human bradykinin B2 receptor (hB2R). The assay is defined herein as a standard in vitro B2 receptor activity assay, which can be used to determine IC50 values of the compounds according to the present invention, e. g. the compounds shown in Examples 1-13.
The antagonistic activity of compounds according to the present invention was investigated with the hB2R-CaM assay using the B2 Bradykinin Receptor Stable Cell Line HTS041C (Eurofins, St. Charles MO) and the FLIPR Calcium 6 Assay Kit (Molecular Devices, Wokingham, UK) according to the instructions of the providers. CaM assay measurements were performed with a Flexstation 3 System (Molecular Devices) which allows the precise addition of compounds (B2R antagonists) and bradykinin (B2R agonist) to the cells and adjacent continuous recording of the time-dependent CaM assay signals.
HTS041C cells were cultured in high glucose DMEM cell culture medium (Lonza) supplemented with 10% heat-inactivated FBS (PAN Biotech), 10 mM HEPES, Penicillin/Streptomycin (200 U/mL, 200 μg/mL), lx non-essential amino acids (Lonza), and 250 μg/mL G418 (Invivogen) in cell incubator at 37° C. in a 5% CO2 atmosphere. One day before the CaM assay experiments cells were seeded in 200 μL DMEM cell culture medium with reduced FBS (5%) and without G418 on clear bottom black 96 well plates (ThermoFisher #165305). Cell starvation was carried out by incubation (37° C., 5% CO2) of 70.000 cells/well for 24 h to 28 h. Immediately prior calcium dye-loading the medium was carefully aspirated and cells were washed with Hank's balanced salt solution (HBSS, Gibco) containing Ca^2+, Mg^2+ and 20 mM HEPES, adjusted to pH 7.4 (HBSS+).
For calcium dye-loading one FLIPR 6 assay aliquot was dissolved in 20 mL HBSS+. 150 μL of the dye loading solution was added to cell plate and incubated for 120 min at 37° C. and 5% CO2. After dye loading the cell plate was immediately transferred to the pre-warmed (37° C.) Flexstation 3 System for CaM assaying.
Freshly prepared compound (B2 receptor antagonists) dilution series (8 pt, n=2) and bradykinin (B2 receptor agonist) solution in non-binding plates (Costar) were transferred to the Flexstation System (source plate) shortly before starting the experiment. Bradykinin was added in EC80 concentration determined in n>3 preliminary experiments with 8 pt concentration response curves (n=8)). CaM assay was executed by Flexstation 3 System starting with recording of calcium-sensitive dye fluorescence in bottom-read Flex modus with ex/em=485 nm/525 nm, cut off(em)=515 nm After 20 s, 50 μL of 4-fold concentrated compound dilutions were added to the cells resulting in a final DMSO (Sigma) concentration of 0.1% in the cell plate. CaM signals were monitored for 80 s after additions for detection of potential agonistic activities. Prior to bradykinin stimulus compound- and vehicle-treated cells were incubated for 25 min at 37° C. within the Flexstation System. Then 50 μL of a 5-fold concentrated bradykinin solution (HBSS+, 0.1% DMSO) was added to trigger CaM signals (Read out: Max-Min values) which were measured for 80 s post bradykinin stimulus.
IC50 determinations were performed by 4 parameter logistic model curve fitting of the 8 pt (n=2) compound concentration response curves using XLFIT (IDBS) software.

Row | IC50 | Structure (SMILES)
1 | 11 to 100 nM | CCN1C(=O)C(C)N([C@@H](C)c2cc(F)cc(Cl)c2COc2cccc3c(-n4cc(F)cn4)cc(C)nc23)C1=O (single isomer, unassigned) [Compound No. 2]
2 | 11 to 100 nM | CCN1C(=O)C(C)N([C@@H](C)c2cc(F)cc(Cl)c2COc2cccc3c(-n4cc(F)cn4)cc(C)nc23)C1=O (single isomer, unassigned) [compound 29]
3 | ≤ 10 nM | Cc1cc(-n2cc(F)cn2)c2cccc(OCc3c(Cl)cc(F)cc3[C@H](C)N3C(=O)N(C4CC4)C(=O)C3C)c2n1 (single isomer, unassigned) [compound 30]
4 | 101 to 500 nM | Cc1cc(-n2cc(F)cn2)c2cccc(OCc3c(Cl)cc(F)cc3[C@H](C)N3C(=O)N(C4CC4)C(=O)C3C)c2n1 (single isomer, unassigned) [compound 31]
5 | 11 to 100 nM | Cc1cc(-n2cc(F)cn2)c2cccc(OCc3c(Cl)cc(F)cc3[C@H](C)N3C(=O)COCC3C)c2n1 (single isomer, unassigned) [compound 32]
6 | 11 to 100 nM | Cc1cc(-n2cc(F)cn2)c2cccc(OCc3c(Cl)cc(F)cc3[C@H](C)N3CCOC(C)C3=O)c2n1 (single isomer, unassigned) [compound 35]
7 | ≤ 10 nM | Cc1cc(-c2ncnn2C)c2cccc(OCc3c(Cl)cc(F)cc3[C@H](C)N3CCOC(C)C3=O)c2n1 (single isomer, unassigned) [compound 48]
8 | 11 to 100 nM | COC1CN([C@@H](C)c2cc(F)cc(Cl)c2COc2cccc3c(-n4cc(F)cn4)cc(C)nc23)C(=O)O1 (single isomer, unassigned) [compound 51]
9 | 101 to 500 nM | COC1CN([C@@H](C)c2cc(F)cc(Cl)c2COc2cccc3c(-n4cc(F)cn4)cc(C)nc23)C(=O)O1 (single isomer, unassigned) [compound 52]
10 | ≤ 10 nM | CCN1C(=O)C(C)N([C@@H](C)c2cc(F)cc(Cl)c2COc2cccc3c(-c4ncnn4C)cc(C)nc23)C1=O (single isomer, unassigned) [compound 53]
11 | 11 to 100 nM | CCN1C(=O)C(C)N([C@@H](C)c2cc(F)cc(Cl)c2COc2cccc3c(-c4ncnn4C)cc(C)nc23)C1=O (single isomer, unassigned) [compound 54]
12 | ≤ 10 nM | Cc1cc(-c2ncnn2C)c2cccc(OCc3c(Cl)cc(F)cc3[C@H](C)N3C(=O)N(C4CC4)C(=O)C3C)c2n1 (single isomer, unassigned) [compound 55]
13 | 11 to 100 nM | Cc1cc(-c2ncnn2C)c2cccc(OCc3c(Cl)cc(F)cc3[C@H](C)N3C(=O)N(C4CC4)C(=O)C3C)c2n1 (single isomer, unassigned) [compound 56]
14 | 11 to 100 nM | Cc1cc(-n2cc(F)cn2)c2cccc(OCc3c(Cl)cc(F)cc3[C@H](C)N3CCC(C)C3=O)c2n1 (single isomer, unassigned) [compound 58]
15 | ≤ 10 nM | Cc1cc(-c2ncnn2C)c2cccc(OCc3c(Cl)cc(F)cc3[C@H](C)N3CCC(C)C3=O)c2n1 (single isomer, unassigned) [compound 60]
16 | 11 to 100 nM | Cc1cc(-c2ncnn2C)c2cccc(OCc3c(Cl)cc(F)cc3[C@H](C)N3C(=O)COCC3C)c2n1 (single isomer, unassigned) [compound 70]
17 | 11 to 100 nM | Cc1cc(-n2cc(F)cn2)c2cccc(OCc3c(Cl)cc(F)cc3[C@H](C)N3CC(=O)N(CC(N)=O)C3=O)c2n1 [Compound No. 1, (S)-2-(3-(1-(3-chloro-5-fluoro-2-((4-(4-fluoro-1H-pyrazol-1-yl)-2-methylquinolin-8-yloxy)methyl)phenyl)ethyl)-2,5-dioxoimidazolidin-1-yl)acetamide]
18 | 11 to 100 nM | Cc1cc(-n2cc(F)cn2)c2cccc(OCc3c(Cl)cc(F)cc3[C@H](C)N3CCNC3=O)c2n1 [Compound No. 3, (S)-1-(1-(3-chloro-5-fluoro-2-((4-(4-fluoro-1H-pyrazol-1-yl)-2-methylquinolin-8-yloxy)methyl)phenyl)ethyl)imidazolidin-2-one]
19 | ≤ 10 nM | Cc1cc(-c2ncnn2C)c2cccc(OCc3c(Cl)cc(F)cc3[C@H](C)N3CC[C@H](O)C3=O)c2n1 [Compound No. 4, (S)-1-((S)-1-(3-chloro-5-fluoro-2-((2-methyl-4-(1-methyl-1H-1,2,4-triazol-5-yl)quinolin-8-yloxy)methyl)phenyl)ethyl)-3-hydroxypyrrolidin-2-one]
20 | ≤ 10 nM | Cc1cc(-c2ncnn2C)c2cccc(OCc3c(Cl)cc(F)cc3[C@H](C)N3CC[C@@H](F)C3=O)c2n1 [Compound No. 5, (R)-1-((S)-1-(3-chloro-5-fluoro-2-((2-methyl-4-(1-methyl-1H-1,2,4-triazol-5-yl)quinolin-8-yloxy)methyl)phenyl)ethyl)-3-fluoropyrrolidin-2-one]
21 | 11 to 100 nM | Cc1cc(-c2ncnn2C)c2cccc(OCc3c(Cl)cc(F)cc3[C@H](C)N3C[C@@H](OC(F)F)CC3=O)c2n1 [Compound No. 6, (S)-1-((S)-1-(3-chloro-5-fluoro-2-((2-methyl-4-(1-methyl-1H-1,2,4-triazol-5-yl)quinolin-8-yloxy)methyl)phenyl)ethyl)-4-(difluoromethoxy)pyrrolidin-2-one]
22 | 11 to 100 nM | Cc1cc(-c2ncnn2C)c2cccc(OCc3c(Cl)cc(F)cc3[C@H](C)N3CCC[C@@H](O)C3=O)c2n1 [Compound No. 7, (R)-1-((S)-1-(3-chloro-5-fluoro-2-((2-methyl-4-(1-methyl-1H-1,2,4-triazol-5-yl)quinolin-8-yloxy)methyl)phenyl)ethyl)-3-hydroxypiperidin-2-one]
23 | 11 to 100 nM | Cc1cc(-c2ncnn2C)c2cccc(OCc3c(Cl)cc(F)cc3[C@H](C)N3C[C@@H](O)CCC3=O)c2n1 [Compound No. 8, (S)-1-((S)-1-(3-chloro-5-fluoro-2-((2-methyl-4-(1-methyl-1H-1,2,4-triazol-5-yl)quinolin-8-yloxy)methyl)phenyl)ethyl)-5-hydroxypiperidin-2-one]
24 | 11 to 100 nM | Cc1cc(-n2cc(F)cn2)c2cccc(OCc3c(Cl)cc(F)cc3[C@H](C)N3CCN(C)CC3=O)c2n1 [Compound No. 9, (S)-1-(1-(3-chloro-5-fluoro-2-((4-(4-fluoro-1H-pyrazol-1-yl)-2-methylquinolin-8-yloxy)methyl)phenyl)ethyl)-4-methylpiperazin-2-one]
25 | 11 to 100 nM | Cc1cc(-c2ncnn2C)c2cccc(OCc3c(Cl)cc(F)cc3[C@H](C)N3CCN(C)C(C)(C)C3=O)c2n1 [Compound No. 10, (S)-1-(1-(3-chloro-5-fluoro-2-((2-methyl-4-(1-methyl-1H-1,2,4-triazol-5-yl)quinolin-8-yloxy)methyl)phenyl)ethyl)-3,3,4-trimethylpiperazin-2-one]
26 | ≤ 10 nM | Cc1cc(-n2cc(F)cn2)c2cccc(OCc3c(Cl)cc(F)cc3[C@H](C)N3C[C@@H](C)N(C)C(=O)C3=O)c2n1 [Compound No. 11, (R)-1-((S)-1-(3-chloro-5-fluoro-2-((4-(4-fluoro-1H-pyrazol-1-yl)-2-methylquinolin-8-yloxy)methyl)phenyl)ethyl)-4,5-dimethylpiperazine-2,3-dione]
27 | ≤ 10 nM | Cc1cc(-n2cc(F)cn2)c2cccc(OCc3c(Cl)cc(F)cc3[C@H](C)N3CC(=O)N(C)[C@@H](C)C3=O)c2n1 [Compound No. 12, (S)-1-((S)-1-(3-chloro-5-fluoro-2-((4-(4-fluoro-1H-pyrazol-1-yl)-2-methylquinolin-8-yloxy)methyl)phenyl)ethyl)-3,4-dimethylpiperazine-2,5-dione]
